Molecules are shown by their SMILES. pEC50: −log10 of the molar value. Where a SMILES comes first, the peptide text is derived from it. Bridges are numbered along the chain shown (N, C = ends). [ ]: non-standard residue; d: D form. Nle = CCCC[C@H](N)C(=O)O

In test [1] the test system is guinea pig tracheal smooth muscle. As to the kind of experiment: Tracheal relaxant activity of VIP analogs on isolated guinea pig tracheal rings. As to conditions: cumulative concentration response, relaxation as % of maximum response to VIP (10^-6 M=100%), three tissues pooled, linear regression. In kind it is cell-based. An outline of the steps:
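Male guinea pig tracheal rings under 1.5 g resting tension in Krebs at 37° C, 95% O2/5% CO2, isometric tension. Cumulative concentration-response curves; relaxation as % of response to 10^-6 M VIP added at end; three tissues pooled, EC50 by linear regression.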

Test [2] concerns guinea pigs. As to the kind of experiment: In vivo bronchodilator activity by tracheal instillation against histamine challenge. More on the design: species or system guinea pig. As to conditions: anesthetized male guinea pigs, inhibition of histamine (i.v.)-induced rise in tracheal pressure. The method, boiled down:
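Urethane-anaesthetised male Hartley guinea pigs (400-600 g) received compound in water by intratracheal instillation, then were paralysed, ventilated and challenged with histamine […] i.v. Tracheal pressure change gave % inhibition (≥3 animals/group); ED50 from log dose-response; duration as time until inhibition fell to 40%.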

As for `CCCC[C@H](NC(=O)[C@H](CCC(N)=O)NC(=O)[C@H](CCCCN)NC(=O)[C@H](CCCNC(=N)N)NC(=O)[C@H](CC(C)C)NC(=O)[C@H](CCCCN)NC(=O)[C@@H](NC(=O)[C@H](Cc1ccc(O)cc1)NC(=O)[C@H](CC(N)=O)NC(=O)[C@H](CC(=O)O)NC(=O)[C@@H](NC(=O)[C@H](Cc1ccccc1)NC(=O)[C@@H](NC(=O)[C@H](C)NC(=O)[C@H](CC(=O)O)NC(=O)[C@H](CO)NC(=O)[C@H](Cc1c[nH]cn1)NC(C)=O)C(C)C)[C@@H](C)O)[C@@H](C)O)C(=O)N[C@@H](C)C(=O)N[C@@H](C)C(=O)N[C@@H](CCCCN)C(=O)N[C@H]1CCCCNC(=O)C[C@@H](C(=O)N[C@@H](CC(C)C)C(=O)N[C@@H](CCCCN)C(=O)N[C@@H](CCCCN)C(=O)N[C@@H](C)C(=O)N[C@@H](C)C(=O)N[C@@H](C)C(N)=O)NC(=O)[C@H](CC(N)=O)NC(=O)[C@H](CC(C)C)NC(=O)[C@H](Cc2ccc(O)cc2)NC1=O` [SEQ ID NO:69, Ac-[Lys^12,Nle^17,Ala^19,Asp^25,Leu^26,Lys^27,28,Ala^29-31]-VIP cyclo (Lys^21 →Asp^25)] (Ac-HSDAVFTDNYTKLRKQ[Nle]AAKKYLNDLKKAAA-NH2; lactam 21-25), the pEC50 in test [1] was 9.38. Moreover, the “Bronchodilator activity of VIP analogs in guinea pigs, ED50” value in test [2] turned out to be 0.04 μg.

`CC[C@H](C)[C@H](NC(=O)[C@H](CO)NC(=O)[C@H](CC(N)=O)NC(=O)[C@H](CC(C)C)NC(=O)[C@H](Cc1ccc(O)cc1)NC(=O)[C@H](CCCCN)NC(=O)[C@H](CCCCN)NC(=O)[C@@H](NC(=O)[C@H](C)NC(=O)[C@H](CCSC)NC(=O)[C@H](CCC(N)=O)NC(=O)[C@H](CCCCN)NC(=O)[C@H](CCCNC(=N)N)NC(=O)[C@H](CC(C)C)NC(=O)[C@H](CCCNC(=N)N)NC(=O)[C@@H](NC(=O)[C@H](Cc1ccc(O)cc1)NC(=O)[C@H](CC(N)=O)NC(=O)[C@H](CC(=O)O)NC(=O)[C@@H](NC(=O)[C@H](Cc1ccccc1)NC(=O)[C@@H](NC(=O)[C@H](C)NC(=O)[C@H](CC(=O)O)NC(=O)[C@H](CO)NC(=O)[C@@H](N)Cc1c[nH]cn1)C(C)C)[C@@H](C)O)[C@@H](C)O)C(C)C)C(=O)N[C@@H](CC(C)C)C(=O)N[C@@H](CC(N)=O)C(N)=O` [VIP, Vasoactive intestinal peptide, reference compound]: the negative-log EC50 (pEC50) in test [1] is 8.00. Further, in test [2], the “Bronchodilator activity of VIP analogs in guinea pigs, ED50” value turned out to be 7.3 μg.

Broadly, the pEC50 is the negative decadic logarithm of the EC50, by convention in mol/L. High values mean a low EC50, low ones a high EC50.

For the origin of these results see US5677419A, “Cyclic vasoactive peptide analogs” (Hoffmann-La Roche Inc., priority 1994, dated 1997).
